Results from paper PMC8032764 (Scientific Reports, 2021).
Where two headings read alike, the source gives them in different places.

Legend:
human α6β3γ2 = molecular target: T1, human α6β3γ2 (Homo sapiens, UniProt P18507+Q16445); conditions: previously determined; read-out: Kd of the radiolabel; cited from earlier work
T1 construct: expressed in transfected cells; host or cells: HEK293-EBNA, transient

non-impaired rodents = experiment: Cognitive performance in non-impaired rodents; assay type: in vivo; conditions: data not shown
GABAA α1β3γ2 = conditions: Table S4a, cited from earlier work
GABAA α2β3γ2 = conditions: Table S4a, cited from earlier work
GABAA α3β3γ2 = conditions: Table S4a, cited from earlier work
GABAA α5β3γ2 = conditions: Table S4a, read-out: Ki α5β3γ2, cited from earlier work
[1] = system: binding sites of [3H]-Ro 15-4513 in the hippocampus; conditions: similar experiments; cited from earlier work
CYP1A2 = conditions: rats, reduced plasma exposure on chronic dosing; cited from earlier work
healthy volunteers = experiment: Resting state EEG in healthy volunteers; assay type: in vivo, human; conditions: midazolam single dose, 1 h post dose
Description: Full details of the protocol can be found in the Supplementary Information. The study was registered on October 2, 2014 with clinicaltrials.gov identifier NCT02254759. The DDI study was approved by the National Research Ethics Service (NRES) Committee South Central—Berkshire B. EEG was included in the study as one of the pharmacodynamic outcome measures.
Resting state EEG (4 min eyes open, 4 min eyes closed) was recorded at 4 days 1 h and 4 h after dosing at morning (similar time at baseline day). […] The EEG recording from day 16 is not reported here. The EEG technician kept the subject alert (vigilance controlled resting state condition). As soon as drowsiness patterns appeared (slow rolling eye movements, attenuated alpha rhythm replaced by low amplitude), the subject was aroused by auditory stimuli (tapping or clicking).
EEG was recorded from 19 Ag/AgCl electrodes arranged according to the 10/20 system and mounted in an elastic cap. EOG was recorded simultaneously from five electrodes. […]
Power spectral estimates were derived for logarithmically scaled frequencies with a logarithmic frequency smoothing using Morlet Wavelets with a spectral smoothing of 1/2 octave (f/σf = 5.83). […] For analyses of “relative power” the power was normalized to 1 across the frequency range analyzed. […]

human GABAA α5β3γ2 = human GABAA α5β3γ2 (Homo sapiens, UniProt P18507+P31644); experiment: Two-electrode voltage clamp in Xenopus oocytes, current induced by EC10 of GABA; assay type: cell-based; parameters: expressed in transfected cells; host or cells: Xenopus laevis oocytes, cRNA injection; conditions: 1000 nM, n = 12, not shown
Chain of human GABAA α5β3γ2 (P31644 32-462): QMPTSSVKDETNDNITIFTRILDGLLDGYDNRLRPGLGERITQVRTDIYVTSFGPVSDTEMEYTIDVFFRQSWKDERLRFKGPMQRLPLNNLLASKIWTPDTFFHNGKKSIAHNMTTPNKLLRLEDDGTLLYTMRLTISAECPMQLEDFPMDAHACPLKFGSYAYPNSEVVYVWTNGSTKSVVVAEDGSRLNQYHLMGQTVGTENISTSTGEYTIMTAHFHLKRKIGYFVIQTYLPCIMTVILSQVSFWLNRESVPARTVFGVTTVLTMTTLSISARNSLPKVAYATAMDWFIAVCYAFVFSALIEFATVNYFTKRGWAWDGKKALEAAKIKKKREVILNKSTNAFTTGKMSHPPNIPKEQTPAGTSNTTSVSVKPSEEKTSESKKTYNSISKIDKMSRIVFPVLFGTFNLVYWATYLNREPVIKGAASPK
Chain of human GABAA α5β3γ2 (P28472 26-473 partner): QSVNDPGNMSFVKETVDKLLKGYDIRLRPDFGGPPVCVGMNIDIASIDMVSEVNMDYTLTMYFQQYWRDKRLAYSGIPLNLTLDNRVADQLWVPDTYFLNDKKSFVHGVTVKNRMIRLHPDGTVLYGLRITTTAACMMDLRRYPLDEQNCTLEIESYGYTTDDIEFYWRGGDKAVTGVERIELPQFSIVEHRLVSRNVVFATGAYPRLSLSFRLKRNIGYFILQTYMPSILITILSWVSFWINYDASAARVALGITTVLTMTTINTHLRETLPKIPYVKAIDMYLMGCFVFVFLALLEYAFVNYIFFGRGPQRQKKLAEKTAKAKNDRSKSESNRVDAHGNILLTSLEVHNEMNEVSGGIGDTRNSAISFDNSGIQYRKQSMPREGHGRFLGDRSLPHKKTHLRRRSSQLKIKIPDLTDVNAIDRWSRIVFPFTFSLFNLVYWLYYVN
Chain of human GABAA α5β3γ2 (P18507 40-475): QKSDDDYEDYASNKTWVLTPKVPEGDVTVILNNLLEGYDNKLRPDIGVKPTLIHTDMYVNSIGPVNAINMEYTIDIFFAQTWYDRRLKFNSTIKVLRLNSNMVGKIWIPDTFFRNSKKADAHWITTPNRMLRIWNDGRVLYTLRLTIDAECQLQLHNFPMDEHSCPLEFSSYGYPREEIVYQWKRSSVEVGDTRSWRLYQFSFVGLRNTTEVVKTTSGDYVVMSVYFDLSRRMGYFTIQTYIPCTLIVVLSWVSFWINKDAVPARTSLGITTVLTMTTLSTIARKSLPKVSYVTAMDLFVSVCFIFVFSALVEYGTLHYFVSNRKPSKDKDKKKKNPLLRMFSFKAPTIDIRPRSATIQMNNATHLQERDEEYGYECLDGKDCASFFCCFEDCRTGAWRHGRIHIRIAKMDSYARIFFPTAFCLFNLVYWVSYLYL
Description: Freshly prepared oocytes of maturation stage VI were bought from Ecocyte Bioscience (Castrop-Rauxel, Germany) and, after overnight delivery, plated into 96-well plates (Greiner no. 651101) for microinjection on a ROBOOCYTE R16 system (Multichannel Systems MCS GmbH, Reutlingen, Germany). Each oocyte was injected with roughly 50 nL of RNA solution. The solution for expressing receptors composed of the human α1, β2 and γ2 subunits contained 3 pg/nL of α1 and β2 RNA and 15 pg/nL of γ2 RNA. The solution for expressing human α2β3γ2 receptors contained 2.5 pg/nL of α2 and β3 RNA, 5 pg/nL of γ2 RNA and 10 pg/nL of GABARAP RNA. The solution for expressing human α3β3γ2 receptors contained 1.3 pg/nL of α3 and β3 RNA and 6.5 pg/nL of γ2 RNA. The solution for expressing human α5β3γ2 receptors contained 1.3 pg/nL of α5 and β3 RNA and 13 pg/nL of γ2 RNA. […] After the microinjection the oocytes were kept at 20 °C temperature until the electrophysiological experiment. Experiments were done 3 to 5 days later on the ROBOOCYTE instrument which employs the two-microelectrode voltage-clamp technique for membrane voltage control and current measurement. […] During current recording and compound testing the cell membrane was constantly clamped to − 80 mV. Current signals were recorded and stored on a PC-type computer using the ROBOOCYTE software.
During the microinjection and up to the electrophysiological experiment the oocytes were kept in a solution containing 88 mM NaCl, 1 mM KCl, 2.5 mM NaHCO3, 10 mM HEPES (AppliChem GmbH, Darmstadt, Germany), 0.82 MgSO4, 0.33 mM Ca(NO3)2, 0.33 mM CaCl2, 100 U/mL penicillin (GIBCO, ThermoFisher Scientific) and 100 µg/mL streptomycine (GIBCO, ThermoFisher Scientific). The pH was adjusted to 7.5. During the experiment the voltage-clamped oocyte was constantly superfused by a solution containing 90 mM NaCl, 1 mM KCl, 5 mM HEPES (AppliChem), 1 mM MgCl2 and 1 mM CaCl2 (pH 7.4). GABA and test compounds were added to this solution. GABA concentrations were chosen according to previously determined concentration–response relations for the different human GABAA receptor subunit combinations. Concentrations evoking approximately 10% of a maximal response were selected, i.e., 8 µM for α1β2γ2, 6 µM for α2β3γ2, 10 µM for α3β3γ2 and 5 µM for α5β3γ2. Solutions containing GABA or test compounds were freshly prepared at least every second day. […] Compounds were further diluted in DMSO and finally in extracellular saline to reach a DMSO concentration of 0.1%. The same amount of DMSO was added to the control solutions without test compounds.
During the experiment the solutions were fed into the well containing the voltage-clamped oocyte via Teflon tubings connected by electromagnetic valves which allowed rapid switching between different solutions (controlled by the ROBOCYTE software). Approximately 1–2 min after impaling an oocyte and switching to voltage-clamp mode GABA was applied for 90 s to record a control response. Thereafter the oocyte was washed with saline for 160 s followed by another 90 s GABA application. Then 30 s after the onset of the second GABA application the system switched to a solution containing GABA plus the test compound. Each oocyte was used for testing one concentration of a single test compound (for α5β3γ2: 1 nM: n = 8, 10 nM: n = 8, 100 nM: n = 7, 1000 nM: n = 7).
In this case each GABA application lasted 110 s and the rest period between the two GABA applications was 190 s long.
On each 96-well plate 3–6 oocytes were used for testing a known NAM at the BZD binding site, β-CCM (FG7106), as a positive control. […] Maximally effective concentrations of β-CCM were used for each subunit combination, i.e., 100 nM β-CCM for α1β2γ2, 300 nM for α2β3γ2 or α3β3γ2 and 1 µM for α5β3γ2.

preclinical species = system: preclinical species; parameters: method as in PMID 15918586; conditions: cited from earlier work
humans = conditions: experimental medicine study; cited from earlier work
healthy elderly humans = conditions: cited from earlier work

T1 sequence (Q16445 20-453): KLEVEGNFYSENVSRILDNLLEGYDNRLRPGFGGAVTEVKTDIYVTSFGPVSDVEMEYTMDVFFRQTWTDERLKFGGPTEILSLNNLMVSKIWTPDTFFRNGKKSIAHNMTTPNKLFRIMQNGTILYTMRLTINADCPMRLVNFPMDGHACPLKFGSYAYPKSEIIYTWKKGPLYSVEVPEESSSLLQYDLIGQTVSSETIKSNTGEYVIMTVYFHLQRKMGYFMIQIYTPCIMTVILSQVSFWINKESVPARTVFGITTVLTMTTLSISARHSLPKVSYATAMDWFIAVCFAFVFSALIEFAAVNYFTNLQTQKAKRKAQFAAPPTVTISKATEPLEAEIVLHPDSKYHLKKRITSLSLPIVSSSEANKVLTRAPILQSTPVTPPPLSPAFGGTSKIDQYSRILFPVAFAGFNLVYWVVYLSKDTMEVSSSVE
T1 sequence (P28472 26-473 partner): as the sequence (P28472 26-473 partner) above
T1 sequence (P18507 40-475): as the sequence (P18507 40-475) above

[3H]C([3H])([3H])N1Cc2c(C(=O)OCC)ncn2-c2ccc(N=[N+]=[N-])cc2C1=O [Ro 15-4513, ethyl 8-azido-6-oxo-5-(tritritiomethyl)-4H-imidazo[1,5-a][1,4]benzodiazepine-3-carboxylate]
Kd (human α6β3γ2): 1.83 nM

FC(F)c1ncn2c1Cn1ncnc1-c1cc(Br)ccc1-2 [RO4938581]
enhancement of cognitive performance (non-impaired rodents): have not shown enhancement of cognitive performance | Ki (GABAA α1β3γ2; ref Ballard et al., 2008): 174 nM | Ki (GABAA α2β3γ2; ref Ballard et al., 2008): 185 nM | Ki (GABAA α3β3γ2; ref Ballard et al., 2008): 80 nM | Ki (GABAA α5β3γ2; ref Ballard et al., 2008): 4.6 nM | binding sites of [3H]-Ro 15-4513 in the hippocampus occupied by the compound [1]: up to 90% | CYP1A2 autoinduction (CYP1A2): strong CYP1A2 autoinduction properties

Cc1ncc2n1-c1ccc(Cl)cc1C(c1ccccc1F)=NC2 [midazolam, reference compound]
change of relative EEG power in the beta band (healthy volunteers): 32.2 ± 7.04% | increase of the GABA-induced current (human GABAA α5β3γ2): 145 ± 9%

Cc1cc(-c2nnc3c4ccccc4c(OCc4cn(C)nn4)nn23)no1 [α5IA]
Ki (GABAA α1β3γ2; ref Dawson et al., 2006): 0.9 nM | Ki (GABAA α2β3γ2; ref Dawson et al., 2006): 0.6 nM | Ki (GABAA α3β3γ2; ref Dawson et al., 2006): 0.6 nM | Ki (GABAA α5β3γ2; ref Dawson et al., 2006): 0.7 nM | reason why development was stopped (preclinical species): renal toxicity in preclinical species | alcohol-induced impairment in word list recall (humans): reversed an alcohol-induced impairment in word list recall

Cc1cc(-c2nncc3c(C(C)(C)C)c(OCc4ncnn4C)nn23)no1 [MRK-016, 3-tert-butyl-7-(5-methylisoxazol-3-yl)-2-(1-methyl-1H-1,2,4-triazol-5-ylmethoxy)-pyrazolo[1,5-d]-[1,2,4]triazine]
Ki (GABAA α1β3γ2; ref Atack et al. 2009): 0.8 nM | Ki (GABAA α2β3γ2; ref Atack et al. 2009): 0.9 nM | Ki (GABAA α5β3γ2; ref Atack et al. 2009): 1.4 nM | reason why development was stopped (healthy elderly humans): poor tolerability in healthy elderly humans
